Assay results published in patent US9072301B2 (priority 2012, dated 2015).

Row | melting point | SMILES
1 | 159 °C | CC1OC(=O)c2ncnc(NCCc3ccc(Oc4ccnc(C(F)(F)F)c4)cc3F)c21 (centres unmarked)
2 | 178 °C | COc1cc(CCNc2ncnc3cnn(C)c23)ccc1Oc1ccnc(C(F)(F)F)c1 [I-10, N-[2-[3-methoxy-4-[[2-(trifluoromethyl)-4-pyridyl]oxy]phenyl]ethyl]-1-methyl-pyrazolo[4,3-d]pyrimidin-7-amine]
